From patent US7943618B2, “Btk protein kinase inhibitors” (Roche Palo Alto LLC, priority 2007, dated 2011)

Legend:
[1] = target: T1, Btk enzyme (His-tagged, full-length) (Homo sapiens, UniProt Q06187); test: Bruton's Tyrosine Kinase (Btk) Inhibition Assay (33P filtration capture); format: biochemical; conditions: Bruton's tyrosine kinase Assay (Example 34), 100 μM ATP
T1 construct: 5-10 nM Btk enzyme (His-tagged, full-length); His
Excerpt: Bruton's Tyrosine Kinase (Btk) Inhibition Assay
The assay is a capture of radioactive ^33P phosphorylated product through filtration. The interactions of Btk, biotinylated SH2 peptide substrate (Src homology), and ATP lead to phosphorylation of the peptide substrate. Biotinylated product is bound streptavidin sepharose beads. All bound, radiolabeled products are detected by scintillation counter.
Plates assayed are 96-well polypropylene (Greiner) and 96-well 1.2 μm hydrophilic PVDF filter plates (Millipore).
IC50 determinations are calculated from 10 data points per compound utilizing data produced from a standard 96-well plate assay template. One control compound and seven unknown inhibitors were tested on each plate and each plate was run twice. […] The control compound was staurosporine. Background was counted in the absence of peptide substrate. Total activity was determined in the presence of peptide substrate. The following protocol was used to determine Btk inhibition.
1) Sample preparation: The test compounds were diluted at half-log increments in assay buffer (imidazole, glycerol-2-phosphate, EGTA, MnCl2, MgCl2, BSA).
2) Bead preparation • a.) rinse beads by centrifuging at 500 g • b.) reconstitute the beads with PBS and EDTA to produce a 20% bead slurry
3) Pre-incubate reaction mix without substrate (assay buffer, DTT, ATP, ^33P ATP) and mix with substrate (assay buffer, DTT, ATP, ^33P ATP, peptide substrate) 30° C. for 15 min.
4) To start assay, pre-incubate 10 μL Btk in enzyme buffer (imidazole, glycerol-2-phosphate, BSA) and 10 μL of test compounds for 10 min at RT.
5) Add 30 μL reaction mixture without or with substrate to Btk and compounds.
6) Incubate 50 μL total assay mix for 30 min at 30° C.
7) Transfer 40 μL of assay to 150 μL bead slurry in filter plate to stop reaction.
8) Wash filter plate after 30 min, with following steps • a. 3×250 μL NaCl • b. 3×250 μL NaCl containing 1% phosphoric acid • c. 1×250 μL H2O
9) Dry plate for 1 h at 65° C. or overnight at RT
10) Add 50 μL microscint-20 and count ^33P cpm on scintillation counter.
Calculate percent activity from raw data in cpm percent activity=(sample−bkg)/(total activity−bkg)×100
Calculate IC50 from percent activity, using one-site dose response sigmoidal model y=A+((B−A)/(1+((x/C)^D))))

T1 sequence (Q06187 whole entry): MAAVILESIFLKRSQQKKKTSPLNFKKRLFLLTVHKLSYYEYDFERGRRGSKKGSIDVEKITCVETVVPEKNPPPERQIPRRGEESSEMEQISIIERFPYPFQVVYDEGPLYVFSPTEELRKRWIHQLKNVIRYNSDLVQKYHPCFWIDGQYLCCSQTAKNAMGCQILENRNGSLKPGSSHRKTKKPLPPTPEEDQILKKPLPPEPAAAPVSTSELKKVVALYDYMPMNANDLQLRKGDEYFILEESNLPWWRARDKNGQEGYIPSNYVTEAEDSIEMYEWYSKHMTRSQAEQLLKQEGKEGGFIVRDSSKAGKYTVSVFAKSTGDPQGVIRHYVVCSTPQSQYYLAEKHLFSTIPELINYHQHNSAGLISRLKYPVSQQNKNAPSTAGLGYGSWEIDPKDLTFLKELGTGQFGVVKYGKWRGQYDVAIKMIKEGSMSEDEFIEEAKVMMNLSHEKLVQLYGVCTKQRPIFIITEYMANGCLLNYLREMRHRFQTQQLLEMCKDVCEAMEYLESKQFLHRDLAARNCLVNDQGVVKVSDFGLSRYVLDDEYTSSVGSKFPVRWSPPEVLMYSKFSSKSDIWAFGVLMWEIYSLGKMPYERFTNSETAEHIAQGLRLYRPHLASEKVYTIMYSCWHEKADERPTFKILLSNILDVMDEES

melting point | IC50 ([1]; Table I pyridazinones) | IC50 ([1]; Table II pyridinones) | Structure (SMILES)
156.5 to 157 °C | 272 nM |  | COc1cc(C(C)(C)C)ccc1C(=O)Nc1cccc(-c2cc(Nc3ccc(C(=O)N4CCOCC4)cn3)c(=O)n(C)n2)c1C [Compound I-7]
251 to 252 °C |  | 1560 nM | CNC(=O)Nc1cc(-c2cccc(CC(=O)N3Cc4ccccc4C3)c2)cn(C)c1=O [II-45]
248.5 to 249.3 °C | 94 nM |  | Cc1c(NC(=O)c2ccc(C(C)(C)C)cc2)cccc1-c1cc(Nc2ccccn2)c(=O)n(C)n1 [Compound I-3]
179 to 180 °C | 680 nM |  | Cn1nc(-c2cccc(CC(=O)N3Cc4ccccc4C3)c2)cc(Nc2ccc(C(=O)N3CCOCC3)cn2)c1=O [Compound I-40]
262 to 264 °C |  |  | CNC(=O)Nc1cc(-c2cccc(NC(=O)c3ccc(C(C)(C)C)cc3)c2C)cn(C)c1=O [II-4, 4-tert-Butyl-N-{2-methyl-3-[1-methyl-5-(3-methyl-ureido)-6-oxo-1,6-dihydro-pyridin-3-yl]-phenyl}-benzamide]
286 to 287 °C |  | 131 nM | CNC(=O)Nc1cc(-c2cccc(NC(=O)c3cc4ccccc4s3)c2C)cn(C)c1=O [II-10]
220 to 221 °C |  | 38 nM | Cc1c(NC(=O)c2ccc(C(C)(C)C)cc2)cccc1-c1cc(NC(=O)NCCO)c(=O)n(C)c1 [II-18]
157 to 158 °C | 110 nM |  | Cc1c(NC(=O)c2ccc(C(C)(C)C)cc2)cccc1-c1cc(Nc2ccc(C(=O)N3CCOCC3)cc2)c(=O)n(C)n1 [Compound I-24]
80 to 81 °C | 2200 nM |  | Cn1nc(-c2cccc(CC(=O)OCCOC(C)(C)C)c2)cc(Nc2ccc(C(=O)N3CCOCC3)cn2)c1=O [Compound I-36]
249 to 250 °C | 208 nM |  | Cc1c(NC(=O)c2ccc(C(C)(C)C)cc2)cccc1-c1cc(Nc2ccncn2)c(=O)n(C)n1 [Compound I-4]
138 to 139 °C | 6290 nM |  | Cn1nc(-c2cccc(CC(=O)NCCC(C)(C)C)c2)cc(Nc2ccc(C(=O)N3CCOCC3)cn2)c1=O [Compound I-43]
203 to 204 °C |  | < 10 nM | CCN(CC)Cc1ccc(Nc2cc(-c3cccc(NC(=O)c4ccc(C5(F)CC5)cc4)c3CO)cn(C)c2=O)nc1 [II-70, N-{3-[5-(5-Diethylaminomethyl-pyridin-2-ylamino)-1-methyl-6-oxo-1,6-dihydro-pyridin-3-yl]-2-hydroxymethyl-phenyl}-4-(1-fluoro-cyclopropyl)-benzamide]
194 to 195 °C |  | 29 nM | Cc1c(NC(=O)c2ccc(C(C)(C)C)cc2)cccc1-c1cc(NC(=O)NCCCN(C)C)c(=O)n(C)c1 [II-22]
229 to 230 °C | 120 nM |  | Cn1nc(-c2cccc(NC(=O)c3ccc(C(C)(C)C)cc3)c2)cc(Nc2ccc(C(=O)N3CCOCC3)cn2)c1=O [Compound I-25]
164 to 165 °C |  | 129 nM | Cc1c(NC(=O)c2ccc(C(C)(C)C)cc2)cccc1-c1cc(NC(=O)NCCN(C)C)c(=O)n(C)c1 [II-16]
287 to 288 °C | 101 nM |  | CNC(=O)Nc1cc(-c2cccc(NC(=O)c3ccc(C(C)(C)C)cc3)c2C)nn(C)c1=O [Compound I-23, 4-tert-Butyl-N-{2-methyl-3-[1-methyl-5-(3-methyl-ureido)-6-oxo-1,6-dihydro-pyridazin-3-yl]-phenyl}-benzamide]
118 to 119 °C |  | 4370 nM | CNC(=O)Nc1cc(-c2cccc(CC(=O)N3CC(OC(C)C)C3)c2)cn(C)c1=O [II-30]
169 to 170 °C |  | 1240 nM | Cc1c(NC(=O)c2ccc(C(C)(C)C)cc2)cccc1-c1cc(NC(=O)NCc2ccccc2)c(=O)n(C)c1 [II-9]
92 to 93 °C | 418 nM |  | CC(C)OC1CN(C(=O)Cc2cccc(-c3cc(Nc4ccc(C(=O)N5CCOCC5)cn4)c(=O)n(C)n3)c2)C1 [Compound I-35]
117 to 118 °C | 16400 nM |  | Cn1nc(-c2cccc(CC(=O)N3CCCC3)c2)cc(Nc2ccc(C(=O)N3CCOCC3)cn2)c1=O [Compound I-33]
224 to 225 °C | 51 nM |  | CSc1nccc(Nc2cc(-c3cccc(NC(=O)c4ccc(C(C)(C)C)cc4)c3C)nn(C)c2=O)n1 [Compound I-12]

melting point | IC50 ([1]; Table I pyridazinones) | IC50 ([1]; Table II pyridinones) | Structure (SMILES)
158 to 160 °C | 14 nM |  | Cc1c(NC(=O)c2ccc(C(C)(C)C)cc2)cccc1-c1cc(Nc2ccc(C(=O)N3CCN(C)CC3)cn2)c(=O)n(C)n1 [Compound I-2]
167.5 to 168.5 °C | 122 nM |  | Cc1c(NC(=O)c2ccc(C(C)(C)O)cc2)cccc1-c1cc(Nc2ccc(C(=O)N3CCN(C)CC3)cn2)c(=O)n(C)n1 [Compound I-5]
262 to 263 °C |  | 1950 nM | CNC(=O)Nc1cc(-c2cccc(NC(=O)N3Cc4ccc(F)cc4C3)c2C)cn(C)c1=O [II-14]
188 to 189 °C | 326 nM |  | Cc1c(NC(=O)c2ccc(C(C)(C)C)cc2)cccc1-c1cc(Nc2ccnc(OCCN(C)C)n2)c(=O)n(C)n1 [Compound I-18]
 |  | 9930 nM | CNC(=O)Nc1cc(-c2cccc(NC(=O)c3ccc4c(ccn4C)c3)c2C)cn(C)c1=O [II-23, 1-Methyl-1H-indole-5-carboxylic acid{2-methyl-3-[1-methyl-5-(3-methyl-ureido)-6-oxo-1,6-dihydro-pyridin-3-yl]-phenyl}-amide]
 |  | 310 nM | CNC(=O)Nc1cc(-c2cccc(NC(=O)c3ccc(N4CCCCC4)nc3)c2C)cn(C)c1=O [II-19]
 |  | 230 nM | CNC(=O)Nc1cc(-c2cccc(NC(=O)c3ccc(C(C)(C)O)cc3)c2C)cn(C)c1=O [II-28, 4-(1-Hydroxy-1-methyl-ethyl)-N-{2-methyl-3-[1-methyl-5-(3-methyl-ureido)-6-oxo-1,6-dihydro-pyridin-3-yl]-phenyl}-benzamide]
 | 34 nM |  | Cc1c(NC(=O)c2ccc(N(C)C)cc2)cccc1-c1cc(Nc2ccc(C(=O)N3CCC(O)CC3)cn2)c(=O)n(C)n1 [Compound I-28, 4-Dimethylamino-N-(3-{5-[5-(4-hydroxy-piperidine-1-carbonyl)-pyridin-2-ylamino]-1-methyl-6-oxo-1,6-dihydro-pyridazin-3-yl}-2-methyl-phenyl)-benzamide]
 |  | 15 nM | CCNC(=O)Nc1cc(-c2cccc(NC(=O)c3ccc(C4(F)CC4)cc3)c2CO)cn(C)c1=O [II-65]
 |  | 24 nM | Cc1ccc(Nc2cc(-c3cccc(NC(=O)c4ccc(C5CC5)cc4)c3CO)cn(C)c2=O)nn1 [II-94]
 |  | 131 nM | CNC(=O)Nc1cc(-c2cccc(NC(=O)c3ccc(C(C)(C)C)cc3)c2)cn(C)c1=O [II-27]
 |  | 114 nM | Cn1cc(-c2cccc(NC(=O)c3ccc(N4CCCCC4)cc3)c2CO)cc(Nc2ccc(C(=O)N3CCOCC3)cn2)c1=O [II-97]
 |  | 160 nM | Cn1cc(-c2cccc(NC(=O)c3ccc(C4CC4)cc3)c2CO)cc(NC(=O)NCCc2cccnc2)c1=O [II-79]
 |  | < 10 nM | Cn1cc(-c2cccc(NC(=O)c3ccc(C(C)(C)C#N)cc3)c2CO)cc(Nc2ccc(C(=O)N3CCOCC3)cn2)c1=O [II-96]
 |  | < 10 nM | Cn1cc(-c2cccc(NC(=O)c3ccc(C4CC4)cc3)c2CO)cc(Nc2ccc(C(=O)N3CCC3)cn2)c1=O [II-101]
 | 143 nM |  | Cc1c(NC(=O)c2ccc(C(C)(C)C)cc2)cccc1-c1cc(Nc2ccnc(OCC3CCNC3)n2)c(=O)n(C)n1 (stereo not shown) [Compound I-19, 4-tert-Butyl-N-(2-methyl-3-{1-methyl-6-oxo-5-[2-(pyrrolidin-3-ylmethoxy)-pyrimidin-4-ylamino]-1,6-dihydro-pyridazin-3-yl}-phenyl)-benzamide]
 |  | 14 nM | Cn1cc(-c2cccc(NC(=O)c3ccc(C4CC4)cc3)c2CO)cc(Nc2ccc(N3CCOCC3)nn2)c1=O [II-103]
 | 61600 nM |  | CC(=O)N1CCN(C(=O)Cc2cccc(-c3cc(Nc4ccc(C(=O)N5CCOCC5)cn4)c(=O)n(C)n3)c2)CC1 [Compound I-44]
 |  | 11 nM | Cn1cc(-c2cccc(NC(=O)c3ccc(C4CC4)cc3)c2CO)cc(Nc2ccc(C(=O)N3CCCC3)cn2)c1=O [II-99]
 |  | 20 nM | CN(C)c1ccc(C(=O)Nc2cccc(-c3cc(Nc4ccccn4)c(=O)n(C)c3)c2CO)cc1 [II-59]

Structure (SMILES) | melting point | IC50 ([1]; Table I pyridazinones) | IC50 ([1]; Table II pyridinones)
CNC(=O)Nc1cc(-c2cccc(CC(=O)N3CC(OC(C)(C)C)C3)c2)cn(C)c1=O [II-29, 1-(5-{3-[2-(3-tert-Butoxy-azetidin-1-yl)-2-oxo-ethyl]-phenyl}-1-methyl-2-oxo-1,2-dihydro-pyridin-3-yl)-3-methyl-urea] | 125 to 126 °C |  | 1400 nM
